Measured values taken from patent publication US20250154288A1, “CYTOTOXICITY TARGETING CHIMERAS FOR C-C CHEMOKINE RECEPTOR 2-EXPRESSING CELLS” (GLAXOSMITHKLINE INTELLECTUAL PROPERTY DEVELOPMENT LIMITED, priority 2022, published 2025).
Structures can show the parent of a compound that is named as a salt.

How the values were obtained:
[1] = molecular target: human alpha1 nicotinic acetylcholine (nACh) receptor (Homo sapiens, UniProt P02708+Q07001); assay: Nicotinic Acetylcholine Receptor Antagonism Assay (IONFlux automated patch clamp); assay type: cell-based; conditions: for IC50: antagonism of nAChR stimulated with acetylcholine, average if several runs; for Emax at 100 µM: maximum percentage antagonism at Maximum Concentration of Compound Tested 100 μM
Protocol: Cells expressing human alpha1 nicotinic acetylcholine (nACh) receptor (nAChR) were washed and dissociated using Trypsin containing buffer. Cells were then washed and seeded at a density of 3-5 million cells/mL and allowed to grow for 3 days. Then, 60-80 μL of cells were added to plates and incubated with dose response of an ARM compound of Formula (I) with a top concentration of either 10 μM or 100 μM. The receptor was then stimulated via addition of acetylcholine (ACh) and activation of the receptor was monitored via the IONFlux automated patch clamp system. IonFlux Data Analyzer software was utilized to perform leak subtraction and measure (min) peak current amplitude.
Data processing: (1) Current values recorded for vehicle only applications in individual traps/patterns were subtracted from corresponding current amplitude values for control, test article and control+test article. (2) Control response was calculated as % of the average response of the 3rd out of total 3 ACh (10 mM) applications alone. In rare situations, if the 3rd ACh response was obscured due to technical artifacts, the 2nd and/or 1st ACh (10 mM) application was considered as control. The peak current amplitude generated in the presence of each test article concentration was then used to calculate the % inhibition as compared to control response (10 mM ACh alone). These estimates were further corrected for vehicle response and run down corrected by normalizing with time matched control responses (10 mM ACh alone). The corrected percentages were then fit with a non-linear function in GraphPad Prism 6 (or later versions) to determine the IC50.
Exclusion criteria: (i) any n's with poor recording quality, (ii) control current amplitude <500 pA or (iii) significant outliers, as determined by the Grubbs' test.
ARMs compounds of Formula (I) of the invention were tested for antagonism of the nAChR in the above assay in […] experimental runs and the results are shown in Table 6 below. Antagonistic activity of the compounds of Formula (I) of the invention is reported as an IC50 value (half maximal inhibitory concentration) and the maximum percentage antagonism observed at the highest concentration of compound of Formula (I) tested, as indicated in Table 6. For compounds tested in more than one experimental run, the IC50 value is reported as an average.

[2] = molecular target: T1, CHOK1 cells engineered to overexpress human CCR2 (Homo sapiens, UniProt P41597); assay: Antibody Dependent Cellular Cytotoxicity (ADCC) Reporter Assay; assay type: cell-based; conditions: with anti-cotinine antibody (human IgG1 Fc, S239D/I332E); Jurkat FcγRIIIa NFAT-luciferase reporter cells; average if several runs; read-out: ADCC Reporter Assay pEC50 (converted)
T1 construct: expressed in transfected cells; host or cells: CHOK1
Protocol: An antibody dependent cellular cytoxocity reporter assay was conducted using the following four assay components: (i) ARM compound of Formula (I) targeting CCR2 (concentrations ranging from 1 pM to 10 μM) (ii) anti-cotinine antibody having a heavy chain sequence of SEQ ID NO: 11 and a light chain sequence of SEQ ID NO: 12 (rabbit variable region with human IgG1 Fc domain containing a DE mutation (S239D/I332E)) (concentrations ranging from 0.01 μg/mL to 200 μg/mL); (iii) target cells: CHOK1 cells engineered to overexpress either human CCR2 (typically 1000-20,000 cells per well) and (iv) reporter cells: Jurkat cells engineered to express FcγRIIIa with the reporter gene luciferase under the control of the NFAT promoter (typically 3000-75,000 cells per well). Reagents were combined in a final volume of 20 μL in a 384-well tissue culture treated plate. All four assay components were incubated together for about 12-18 hours. Thereafter, BioGlo Detection reagent (Promega) was added to the wells to lyse the cells and provide a substrate for the luciferase reporter protein. Luminescence signal was measured on a microplate reader and signal:background was calculated by dividing the signal of a test well by the signal obtained when no heterobivalent compound of Formula (I) was added. EC50 calculations were done using Graphpad Prism Software, specifically a nonlinear regression curve fit (Y=Bottom+(Top−Bottom)/(1+10 ^((Log EC50−X)*HillSlope))).
ARMs compounds of Formula (I) of the invention were tested for ADCC activity in the above assay in or more experimental runs and the results are shown in Table 3 below. Potency of the compounds of Formula (I) of the invention is reported as a pEC50 value. The pEC50 value is the negative log of the EC50 value, wherein the EC50 value is the half maximal effective concentration measured in molar (M). For compounds tested in more than one experimental run, the pEC50 value is reported as an average.

human alpha1 nicotinic acetylcholine (nACh) receptor, sequence (P02708 21-457): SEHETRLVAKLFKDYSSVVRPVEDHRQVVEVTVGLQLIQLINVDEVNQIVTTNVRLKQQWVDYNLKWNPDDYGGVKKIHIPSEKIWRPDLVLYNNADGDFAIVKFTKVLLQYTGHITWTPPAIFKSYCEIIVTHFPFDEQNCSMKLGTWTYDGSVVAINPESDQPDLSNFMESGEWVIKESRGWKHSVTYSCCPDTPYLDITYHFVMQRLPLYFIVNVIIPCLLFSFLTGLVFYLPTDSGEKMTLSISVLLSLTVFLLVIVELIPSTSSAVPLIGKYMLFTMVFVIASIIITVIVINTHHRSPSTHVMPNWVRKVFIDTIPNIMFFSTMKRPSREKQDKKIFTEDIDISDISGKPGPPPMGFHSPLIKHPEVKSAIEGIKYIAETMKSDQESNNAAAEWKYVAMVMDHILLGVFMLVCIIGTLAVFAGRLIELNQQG
human alpha1 nicotinic acetylcholine (nACh) receptor, sequence (P11230 24-501 partner): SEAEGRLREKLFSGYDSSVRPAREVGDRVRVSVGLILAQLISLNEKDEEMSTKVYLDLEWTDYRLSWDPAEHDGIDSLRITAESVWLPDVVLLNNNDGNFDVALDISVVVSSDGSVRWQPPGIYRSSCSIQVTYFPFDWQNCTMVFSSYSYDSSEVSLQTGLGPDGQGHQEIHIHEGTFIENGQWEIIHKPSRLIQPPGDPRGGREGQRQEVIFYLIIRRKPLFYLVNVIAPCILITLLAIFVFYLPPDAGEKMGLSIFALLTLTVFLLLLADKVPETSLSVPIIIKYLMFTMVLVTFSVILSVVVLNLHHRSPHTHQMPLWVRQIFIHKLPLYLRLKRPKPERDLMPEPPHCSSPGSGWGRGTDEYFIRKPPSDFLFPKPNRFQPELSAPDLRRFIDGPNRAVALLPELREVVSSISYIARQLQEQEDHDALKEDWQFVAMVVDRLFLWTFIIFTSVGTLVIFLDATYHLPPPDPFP
human alpha1 nicotinic acetylcholine (nACh) receptor, sequence (Q07001 22-517): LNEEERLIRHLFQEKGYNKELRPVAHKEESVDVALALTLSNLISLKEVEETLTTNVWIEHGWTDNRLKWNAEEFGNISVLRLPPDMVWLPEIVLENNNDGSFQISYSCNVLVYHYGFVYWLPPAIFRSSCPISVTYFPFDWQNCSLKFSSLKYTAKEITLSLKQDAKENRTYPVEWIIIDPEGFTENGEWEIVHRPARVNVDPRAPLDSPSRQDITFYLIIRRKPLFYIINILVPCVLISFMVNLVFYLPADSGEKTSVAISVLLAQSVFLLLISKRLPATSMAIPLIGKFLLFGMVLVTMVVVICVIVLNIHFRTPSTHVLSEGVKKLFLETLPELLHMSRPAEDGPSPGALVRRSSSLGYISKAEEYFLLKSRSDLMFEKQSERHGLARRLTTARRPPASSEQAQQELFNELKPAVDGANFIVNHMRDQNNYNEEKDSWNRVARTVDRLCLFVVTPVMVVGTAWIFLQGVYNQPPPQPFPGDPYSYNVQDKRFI

Row | Structure (SMILES) | IC50 [1] [nM] | Emax at 100 µM ([1]; read-out: Maximum Response (%)) [%] | EC50 [2] [nM] | Emax at 10 µM ([1]; maximum percentage antagonism at Maximum Concentration of Compound Tested 10 μM, read-out: Maximum Response (%)) [%]
1 | CO[C@@H]1COCC[C@@H]1N[C@@H]1CC[C@](CCCNC(=O)[C@H]2CC[C@@H](NC(=O)CCCO[C@H]3CC[C@H](OCCNC(=O)[C@H]4CC(=O)N(C)[C@@H]4c4cccnc4)CC3)CC2)(C(=O)N2CCc3ncc(C(F)(F)F)cc3C2)C1 [Example 6, (2S,3S)-N-(2-(((1R,4S)-4-(4-(((1R,4S)-4-((3-((1S,3R)-3-(((3S,4S)-3-Methoxytetrahydro-2H-pyran-4-yl)amino)-1-(3-(trifluoromethyl)-5,6,7,8-tetrahydro-1,6-naphthyridine-6-carbonyl)cyclopentyl)propyl)carbamoyl)cyclohexyl)amino)-4-oxobutoxy)cyclohexyl)oxy)ethyl)-1-methyl-5-oxo-2-(pyridin-3-yl)pyrrolidine-3-carboxamide, Formic acid salt] | > 100000 | 31 | 0.794 | –
2 | CO[C@@H]1COCC[C@@H]1N[C@@H]1CC[C@](CCCCNC(=O)[C@H]2CC[C@H](NC(=O)CCCO[C@H]3CC[C@@H](OCCNC(=O)[C@H]4CC(=O)N(C)[C@@H]4c4cccnc4)CC3)CC2)(C(=O)N2CCc3ncc(C(F)(F)F)cc3C2)C1 [Example 10, (2S,3S)-N-(2-(((1S,4R)-4-(4-(((1S,4R)-4-((4-((1S,3R)-3-(((3S,4S)-3-Methoxytetrahydro-2H-pyran-4-yl)amino)-1-(3-(trifluoromethyl)-5,6,7,8-tetrahydro-1,6-naphthyridine-6-carbonyl)cyclopentyl)butyl)carbamoyl)cyclohexyl)amino)-4-oxobutoxy)cyclohexyl)oxy)ethyl)-1-methyl-5-oxo-2-(pyridin-3-yl)pyrrolidine-3-carboxamide] | > 100000 | 26 | 1.26 | –
3 | CO[C@@H]1COCC[C@@H]1N(CCCNC(=O)[C@H]1CC[C@H](NC(=O)CCCO[C@H]2CC[C@H](OCCNC(=O)[C@H]3CC(=O)N(C)[C@@H]3c3cccnc3)CC2)CC1)[C@@H]1CC[C@@](C(=O)N2CCc3ncc(C(F)(F)F)cc3C2)(C(C)C)C1 [Example 13, (2S,3S)-N-(2-(((1R,4S)-4-(4-(((1S,4R)-4-((3-(((1R,3S)-3-isopropyl-3-(3-(trifluoromethyl)-5,6,7,8-tetrahydro-1,6-naphthyridine-6-carbonyl)cyclopentyl)((3S,4S)-3-methoxytetrahydro-2H-pyran-4-yl)amino)propyl)carbamoyl)cyclohexyl)amino)-4-oxobutoxy)cyclohexyl)oxy)ethyl)-1-methyl-5-oxo-2-(pyridin-3-yl)pyrrolidine-3-carboxamide] | > 100000 | 37 | 0.794 | –
4 | CO[C@@H]1COCC[C@@H]1N[C@@H]1CC[C@](CCCNC(=O)[C@H]2CC[C@@H](NC(=O)CCCC(=O)NCCCC(=O)NCCCNC(=O)[C@H]3CC(=O)N(C)[C@@H]3c3cccnc3)CC2)(C(=O)N2CCc3ncc(C(F)(F)F)cc3C2)C1 [Example 16, N-((1R,4s)-4-((3-((1S,3R)-3-(((3S,4S)-3-Methoxytetrahydro-2H-pyran-4-yl)amino)-1-(3-(trifluoromethyl)-5,6,7,8-tetrahydro-1,6-naphthyridine-6-carbonyl)cyclopentyl)propyl)carbamoyl)cyclohexyl)-N-(4-((3-((2S,3S)-1-methyl-5-oxo-2-(pyridin-3-yl)pyrolidine-3-carboxamido)propyl)amino)-4-oxobutyl)glutaramide] | 71100 | 64 | 0.631 | –
5 | CO[C@@H]1COCC[C@@H]1N[C@@H]1CC[C@](CCCCNC(=O)CCOCCOCCO[C@H]2CC[C@H](OCCNC(=O)[C@H]3CC(=O)N(C)[C@@H]3c3cccnc3)CC2)(C(=O)N2CCc3ncc(C(F)(F)F)cc3C2)C1 [Example 21, (2S,3S)-N-(2-(((1r,4S)-4-(2-(2-(3-((4-((1S,3R)-3-(((3S,4S)-3-Methoxytetrahydro-2H-pyran-4-yl)amino)-1-(3-(trifluoromethyl)-5,6,7,8-tetrahydro-1,6-naphthyridine-6-carbonyl)cyclopentyl)butyl)amino)-3-oxopropoxy)ethoxy)ethoxy)cyclohexyl)oxy)ethyl)-1-methyl-5-oxo-2-(pyridin-3-yl)pyrrolidine-3-carboxamide, Formic acid salt] | > 10000 | – | 6.31 | 22
